Assay results: ChEMBL document CHEMBL5131502, “Improving the treatment of Parkinson's disease: Structure-based development of novel 5-HT2A receptor antagonists/inverse agonists” (Eur J Med Chem, 2022)
In brackets after ≈: the same amount, converted by molar mass. One block for each molecule: values may come before it.

How the values were obtained:
[1] = Plasma protein binding in monkey at 10 uM; assay type: ADME, cell-free, Macaca mulatta; conditions: rhesus monkey, read-out: PPB (converted)
[2] = Plasma protein binding in human at 10 uM; assay type: ADME, cell-free; conditions: read-out: PPB (converted)
Cytochrome P450 2D6 = Cytochrome P450 2D6 (Homo sapiens, UniProt P10635); test: Inhibition of CYP2D6 (unknown origin); assay type: ADME
Chain of Cytochrome P450 2D6 (P10635 whole entry): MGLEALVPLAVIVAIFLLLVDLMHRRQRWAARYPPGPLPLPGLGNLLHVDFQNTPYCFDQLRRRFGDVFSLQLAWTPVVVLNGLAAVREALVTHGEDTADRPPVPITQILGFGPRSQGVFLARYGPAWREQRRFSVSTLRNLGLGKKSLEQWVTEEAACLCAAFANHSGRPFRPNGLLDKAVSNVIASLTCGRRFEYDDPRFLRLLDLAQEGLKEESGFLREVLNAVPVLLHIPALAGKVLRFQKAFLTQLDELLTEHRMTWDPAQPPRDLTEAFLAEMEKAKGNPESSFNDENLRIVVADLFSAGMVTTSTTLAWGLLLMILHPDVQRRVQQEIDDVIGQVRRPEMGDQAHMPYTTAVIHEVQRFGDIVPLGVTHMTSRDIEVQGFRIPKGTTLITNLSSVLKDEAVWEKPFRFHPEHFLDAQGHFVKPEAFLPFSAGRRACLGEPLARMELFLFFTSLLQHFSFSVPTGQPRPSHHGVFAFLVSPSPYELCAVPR

[3] = Metabolic stability in Sprague-Dawley rat liver microsomes assessed as compound remaining at 100 uM […] followed by NADPH addition by LC/MS analysis; assay type: ADME, Microsome; conditions: read-out: Stability
[4] = Dissociation constant, pKa of the compound; assay type: physicochemical
[5] = Plasma protein binding in rat at 10 uM; assay type: ADME, cell-free; conditions: read-out: PPB (converted)
[6] = AUC(0 to 24 hrs) in mouse at 100 mg/kg by UHPLC/FT-ICR-MS analysis; assay type: ADME, organism-based; design: time < 24 hr, dose 100 mg/kg; conditions: in vivo
[7] = AUC(0 to 24 hrs) in rat at 100 mg/kg by UHPLC/FT-ICR-MS analysis; assay type: ADME, organism-based; design: time < 24 hr, dose 100 mg/kg; conditions: in vivo
[8] = AUC(0 to 24 hrs) in monkey at 100 mg/kg by UHPLC/FT-ICR-MS analysis; assay type: ADME, organism-based, Macaca mulatta; design: time < 24 hr, dose 100 mg/kg; conditions: rhesus monkey, in vivo
[9] = AUC(0 to 24 hrs) in human at 80 mg/kg/day by UHPLC/FT-ICR-MS analysis; assay type: ADME, organism-based; design: time < 24 hr, dose 80 mg/kg/day; conditions: in vivo
[10] = Drug metabolism in mouse assessed as AUC(0 to 24 hrs) for AC-279 metabolite at 100 mg/kg by UHPLC/FT-ICR-MS analysis; assay type: ADME, organism-based; design: time < 24 hr, dose 100 mg/kg; conditions: in vivo
[11] = Drug metabolism in rat assessed as AUC(0 to 24 hrs) for AC-279 metabolite at 100 mg/kg by UHPLC/FT-ICR-MS analysis; assay type: ADME, organism-based; design: time < 24 hr, dose 100 mg/kg; conditions: in vivo
[12] = Drug metabolism in monkey assessed as AUC(0 to 24 hrs) for AC-279 metabolite at 100 mg/kg by UHPLC/FT-ICR-MS analysis; assay type: ADME, organism-based, Macaca mulatta; design: time < 24 hr, dose 100 mg/kg; conditions: rhesus monkey, in vivo
[13] = Drug metabolism in human assessed as AUC(0 to 24 hrs) for AC-279 metabolite at 80 mg/kg/day by UHPLC/FT-ICR-MS analysis; assay type: ADME, organism-based; design: time < 24 hr, dose 80 mg/kg/day; conditions: in vivo
[14] = Drug metabolism in rat assessed as AUC(0 to 24 hrs) for AC- 423 metabolite at 100 mg/kg by UHPLC/FT-ICR-MS analysis; assay type: ADME, organism-based; design: time < 24 hr, dose 100 mg/kg; conditions: in vivo
[15] = Drug metabolism in monkey assessed as AUC(0 to 24 hrs) for AC- 423 metabolite at 100 mg/kg by UHPLC/FT-ICR-MS analysis; assay type: ADME, organism-based, Macaca mulatta; design: time < 24 hr, dose 100 mg/kg; conditions: rhesus monkey, in vivo
[16] = Drug metabolism in human assessed as AUC(0 to 24 hrs) for AC- 423 metabolite at 80 mg/kg/day by UHPLC/FT-ICR-MS analysis; assay type: ADME, organism-based; design: time < 24 hr, dose 80 mg/kg/day; conditions: in vivo
[17] = Drug metabolism in mouse assessed as AUC(0 to 24 hrs) for AC- 527 metabolite at 100 mg/kg by UHPLC/FT-ICR-MS analysis; assay type: ADME, organism-based; design: time < 24 hr, dose 100 mg/kg; conditions: in vivo
[18] = Drug metabolism in rat assessed as AUC(0 to 24 hrs) for AC- 527 metabolite at 100 mg/kg by UHPLC/FT-ICR-MS analysis; assay type: ADME, organism-based; design: time < 24 hr, dose 100 mg/kg; conditions: in vivo
[19] = Drug metabolism in monkey assessed as AUC(0 to 24 hrs) for AC- 527 metabolite at 100 mg/kg by UHPLC/FT-ICR-MS analysis; assay type: ADME, organism-based, Macaca mulatta; design: time < 24 hr, dose 100 mg/kg; conditions: rhesus monkey, in vivo
[20] = Drug metabolism in human assessed as AUC(0 to 24 hrs) for AC- 527 metabolite at 80 mg/kg/day by UHPLC/FT-ICR-MS analysis; assay type: ADME, organism-based; design: time < 24 hr, dose 80 mg/kg/day; conditions: in vivo
[21] = Metabolic stability in Sprague-Dawley rat liver microsomes assessed as half life at 100 uM preincubated for 10 mins followed by NADPH addition by LC/MS analysis; assay type: ADME, Microsome
[22] = Metabolic stability in human liver microsomes assessed as half life at 100 uM preincubated for 10 mins followed by NADPH addition by LC/MS analysis; assay type: ADME, Microsome
[23] = Metabolic stability in Sprague-Dawley rat liver microsomes assessed as intrinsic clearance at 100 uM preincubated for 10 mins followed by NADPH addition by LC/MS analysis; assay type: ADME, Microsome; conditions: read-out: CLH
[24] = Metabolic stability in human liver microsomes assessed as intrinsic clearance at 100 uM preincubated for 10 mins followed by NADPH addition by LC/MS analysis; assay type: ADME, Microsome; conditions: read-out: CLH
[25] = Metabolic stability in human liver microsomes assessed as compound remaining at 100 uM […] followed by NADPH addition by LC/MS analysis; assay type: ADME, Microsome; conditions: read-out: Stability
[26] = Lipophilicity, logD of the compound at pH 7.4; assay type: physicochemical; conditions: buffer
[27] = Aqueous solubility of compound at pH 7.4; assay type: physicochemical
[28] = Metabolic stability in dog liver microsomes assessed as compound remaining at 100 uM […] followed by NADPH addition by LC/MS analysis; assay type: ADME, Canis lupus familiaris, Microsome; conditions: read-out: Stability
Cytochrome P450 1A2 = biological target: T1, Cytochrome P450 1A2 (Homo sapiens, UniProt P05177); test: Inhibition of CYP1A2 (unknown origin); assay type: ADME
T1 sequence (P05177 whole entry): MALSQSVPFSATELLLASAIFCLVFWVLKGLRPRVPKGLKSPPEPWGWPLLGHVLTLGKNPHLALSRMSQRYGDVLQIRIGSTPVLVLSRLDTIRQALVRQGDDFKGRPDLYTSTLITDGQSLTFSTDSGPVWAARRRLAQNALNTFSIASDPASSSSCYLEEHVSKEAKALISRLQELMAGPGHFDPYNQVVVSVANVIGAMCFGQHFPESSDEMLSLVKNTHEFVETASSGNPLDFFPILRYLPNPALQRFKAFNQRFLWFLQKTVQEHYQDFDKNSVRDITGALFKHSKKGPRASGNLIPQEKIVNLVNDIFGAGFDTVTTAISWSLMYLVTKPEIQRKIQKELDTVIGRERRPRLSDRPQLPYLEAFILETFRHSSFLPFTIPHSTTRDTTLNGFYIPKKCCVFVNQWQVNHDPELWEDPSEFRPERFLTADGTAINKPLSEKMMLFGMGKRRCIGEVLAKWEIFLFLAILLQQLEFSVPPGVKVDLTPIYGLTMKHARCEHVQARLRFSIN

Cytochrome P450 2C9 = Cytochrome P450 2C9 (Homo sapiens, UniProt P11712); test: Inhibition of CYP2C9 (unknown origin); assay type: ADME
Chain of Cytochrome P450 2C9 (P11712 whole entry): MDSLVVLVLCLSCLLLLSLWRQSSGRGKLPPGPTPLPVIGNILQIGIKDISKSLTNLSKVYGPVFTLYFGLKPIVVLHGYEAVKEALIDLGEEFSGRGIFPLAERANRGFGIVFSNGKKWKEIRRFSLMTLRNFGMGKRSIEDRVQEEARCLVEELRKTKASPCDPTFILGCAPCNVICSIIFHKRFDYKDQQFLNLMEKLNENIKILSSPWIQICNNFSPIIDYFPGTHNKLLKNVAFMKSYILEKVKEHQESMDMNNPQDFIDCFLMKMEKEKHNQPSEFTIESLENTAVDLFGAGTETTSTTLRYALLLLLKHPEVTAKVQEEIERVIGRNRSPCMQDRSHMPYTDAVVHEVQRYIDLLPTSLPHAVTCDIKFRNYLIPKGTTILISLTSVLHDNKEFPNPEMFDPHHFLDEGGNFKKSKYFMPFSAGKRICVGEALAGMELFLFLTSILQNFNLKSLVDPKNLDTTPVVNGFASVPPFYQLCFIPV

Cytochrome P450 2C19 = Cytochrome P450 2C19 (Homo sapiens, UniProt P33261); test: Inhibition of CYP2C19 (unknown origin); assay type: ADME
Chain of Cytochrome P450 2C19 (P33261 whole entry): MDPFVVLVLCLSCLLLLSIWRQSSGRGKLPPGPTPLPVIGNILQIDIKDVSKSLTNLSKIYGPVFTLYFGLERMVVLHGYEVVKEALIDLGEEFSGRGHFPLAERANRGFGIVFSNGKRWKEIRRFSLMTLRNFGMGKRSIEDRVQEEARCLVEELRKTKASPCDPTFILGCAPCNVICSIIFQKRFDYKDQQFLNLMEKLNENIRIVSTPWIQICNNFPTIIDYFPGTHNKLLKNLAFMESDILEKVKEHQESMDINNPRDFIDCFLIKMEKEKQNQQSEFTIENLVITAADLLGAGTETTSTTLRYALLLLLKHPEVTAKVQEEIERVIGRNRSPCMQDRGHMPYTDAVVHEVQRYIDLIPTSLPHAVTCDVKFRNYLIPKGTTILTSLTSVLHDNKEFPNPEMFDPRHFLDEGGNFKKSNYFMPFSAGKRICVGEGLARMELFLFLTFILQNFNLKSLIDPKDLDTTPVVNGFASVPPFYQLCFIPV

[29] = Drug distribution in Sprague-Dawley rat brain at 6 micromol/kg administered via gavage measured after 0.5 hr by LC-MS/MS analysis; assay type: ADME, tissue-based; conditions: in vivo, po, dose 6 µmol/kg
[30] = Drug distribution in Sprague-Dawley rat brain at 6 micromol/kg administered via gavage measured after 2 hrs by LC-MS/MS analysis; assay type: ADME, tissue-based; conditions: in vivo, po, dose 6 µmol/kg
[31] = Drug distribution in Sprague-Dawley rat brain at 6 micromol/kg administered via gavage measured after 6 hrs by LC-MS/MS analysis; assay type: ADME, tissue-based; conditions: in vivo, po, dose 6 µmol/kg
[32] = Half life in Sprague-Dawley rat at 2 mg/kg, IG administered as single dose measured upto 24 hrs by LC-MS/MS analysis; assay type: ADME, organism-based; conditions: in vivo, po
[33] = Half life in Sprague-Dawley rat at 4 mg/kg, IG administered as single dose measured upto 24 hrs by LC-MS/MS analysis; assay type: ADME, organism-based; conditions: in vivo, po
[34] = Tmax in Sprague-Dawley rat at 2 mg/kg, IG administered as single dose measured upto 24 hrs by LC-MS/MS analysis; assay type: ADME, organism-based; conditions: in vivo, po
[35] = Tmax in Sprague-Dawley rat at 4 mg/kg, IG administered as single dose measured upto 24 hrs by LC-MS/MS analysis; assay type: ADME, organism-based; conditions: in vivo, po
[36] = Cmax in Sprague-Dawley rat at 2 mg/kg, IG administered as single dose measured upto 24 hrs by LC-MS/MS analysis; assay type: ADME, organism-based; design: dose 2 mg/kg, time < 24 hrs, route ig; conditions: in vivo, po
[37] = Cmax in Sprague-Dawley rat at 4 mg/kg, IG administered as single dose measured upto 24 hrs by LC-MS/MS analysis; assay type: ADME, organism-based; design: dose 4 mg/kg, time < 24 hrs, route ig; conditions: in vivo, po
[38] = AUClast in Sprague-Dawley rat at 2 mg/kg, IG administered as single dose measured upto 24 hrs by LC-MS/MS analysis; assay type: ADME, organism-based; design: dose 2 mg/kg, time < 24 hrs, route ig; conditions: in vivo, po
[39] = AUClast in Sprague-Dawley rat at 4 mg/kg, IG administered as single dose measured upto 24 hrs by LC-MS/MS analysis; assay type: ADME, organism-based; design: dose 4 mg/kg, time < 24 hrs, route ig; conditions: in vivo, po
[40] = MRTlast in Sprague-Dawley rat at 2 mg/kg, IG administered as single dose measured upto 24 hrs by LC-MS/MS analysis; assay type: ADME, organism-based; conditions: in vivo, po
[41] = MRTlast in Sprague-Dawley rat at 4 mg/kg, IG administered as single dose measured upto 24 hrs by LC-MS/MS analysis; assay type: ADME, organism-based; conditions: in vivo, po

fraction unbound at 10 µM [1]: 0.053
fraction unbound at 10 µM [2]: 0.045
IC50 (Cytochrome P450 2D6): > 100 µM
remaining at 100 µM [3]: 68.5%
pKa [4]: 8.44
fraction unbound at 10 µM [5]: 0.037
AUC(0-t) at 24 h [6]: 4460 ng·h/mL
AUC(0-t) at 24 h [7]: 3250 ng·h/mL
AUC(0-t) at 24 h [8]: 7730 ng·h/mL
AUC at 24 h [9]: 836 ng·h/mL
AUC [10]: 8210 ng·h/mL
AUC [11]: 4320 ng·h/mL
AUC [12]: 4800 ng·h/mL
AUC [13]: 527 ng·h/mL
AUC [14]: 18577 ng·h/mL
AUC [15]: 2411 ng·h/mL
AUC [16]: 112 ng·h/mL
AUC [17]: 388 ng·h/mL
AUC [18]: 1976 ng·h/mL
AUC [19]: 1289 ng·h/mL
AUC [20]: 236 ng·h/mL
half-life at 100 µM [21]: 1.78 h
half-life at 100 µM [22]: 1.96 h
CLint scaled at 100 µM [23]: 23.2 mL/min/kg
CLint scaled at 100 µM [24]: 11 mL/min/kg
remaining at 100 µM [25]: 70.7%
logD [26]: 2.78
solubility [27]: 21 µg/mL (≈ 49.1 µM)
remaining at 100 µM [28]: 29.7%
IC50 (Cytochrome P450 1A2): 52 µM
IC50 (Cytochrome P450 2C9): > 100 µM
IC50 (Cytochrome P450 2C19): 49.8 µM
Ct [29]: 136 nmol/kg
Ct [30]: 171 nmol/kg
Ct [31]: 36 nmol/kg
SMILES: CC(C)COc1ccc(CNC(=O)N(Cc2ccc(F)cc2)C2CCN(C)CC2)cc1 [PIMAVANSERIN]

SMILES: CN1CCC(N(Cc2ccc(F)cn2)C(=O)NCc2ccc(OCC(F)(F)F)cc2)CC1.O=C(O)C(O)C(O)C(=O)O
half-life [32]: 4.72 h
half-life [33]: 4.44 h
Tmax [34]: 0.9 h
Tmax [35]: 0.81 h
Cmax [36]: 87.7 nM
Cmax [37]: 174 nM
AUC(0-t) at 24 h [38]: 0.683 µM·h
AUC(0-t) at 24 h [39]: 1.22 µM·h
MRT last at 24 h [40]: 6.3 h
MRT last at 24 h [41]: 6.03 h
